Results reported in PMC11365967 (Nature Communications, 2024).

Target: T1, CCR6 (Homo sapiens, UniProt P51684)
T1 sequence (P51684 1-374): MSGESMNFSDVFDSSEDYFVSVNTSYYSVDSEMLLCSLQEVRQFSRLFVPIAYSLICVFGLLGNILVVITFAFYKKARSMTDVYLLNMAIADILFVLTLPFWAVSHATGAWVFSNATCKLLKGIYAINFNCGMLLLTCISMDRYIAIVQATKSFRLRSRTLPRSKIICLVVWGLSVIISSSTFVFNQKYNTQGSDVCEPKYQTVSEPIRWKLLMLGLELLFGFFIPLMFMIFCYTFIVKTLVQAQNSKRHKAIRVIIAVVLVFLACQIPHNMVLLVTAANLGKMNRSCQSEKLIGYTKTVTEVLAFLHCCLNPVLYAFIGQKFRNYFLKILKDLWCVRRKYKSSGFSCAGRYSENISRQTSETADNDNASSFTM
Experiment: CCL20-mediated CCR6+ human T cell chemotaxis assay
Type: cell-based

| activity on CCR6 | pEC50, CCL20-induced CCR6+ human T cell chemotaxis (mean ± s.d., n = 5) | EC50 (read-out: EC50, CCL20-induced CCR6+ human T cell chemotaxis, n = 5) [nM] | Compound |
| --- | --- | --- | --- |
| neither OXM3 nor OXM4 are active | – | – | CC(C)(C(=O)NCC1CN(C2Cc3ccccc3C2)C(=O)CO1)c1ccc(Cl)cc1 (stereo not shown) [OXM3] |
| neither OXM3 nor OXM4 are active | – | – | O=C1COC(CNC(=O)C2(c3ccccc3)CC2)CN1C1Cc2ccccc2C1 (stereo not shown) [OXM4] |
| – | 9.7 ± 0.9 | 0.19 | CCL20: cognate chemokine ligand (agonist) of CCR6 (Peprotech) |
